Assay results published in ChEMBL document CHEMBL2046335, “Synthesis and discovery of N-carbonylpyrrolidine- or N-sulfonylpyrrolidine-containing uracil derivatives as potent human deoxyuridine triphosphatase inhibitors” (J Med Chem, 2012).

What was measured:
[1] = target: T1, Deoxyuridine 5'-triphosphate nucleotidohydrolase, mitochondrial (Homo sapiens, UniProt P33316); assay: Inhibition of human dUTPase using [5-3H]dUTP as substrate after 15 mins by HPLC analysis
T1 sequence (P33316 whole entry): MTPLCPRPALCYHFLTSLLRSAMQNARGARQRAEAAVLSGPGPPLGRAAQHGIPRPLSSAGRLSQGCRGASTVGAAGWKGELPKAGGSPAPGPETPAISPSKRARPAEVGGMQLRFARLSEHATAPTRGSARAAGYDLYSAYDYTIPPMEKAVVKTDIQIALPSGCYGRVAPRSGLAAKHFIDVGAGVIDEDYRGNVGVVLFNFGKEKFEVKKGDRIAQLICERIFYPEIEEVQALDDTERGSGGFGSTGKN

[2] = target: T1, Deoxyuridine 5'-triphosphate nucleotidohydrolase, mitochondrial; assay: Inhibition of human dUTPase
[3] = Competitive inhibition of Escherichia coli dUTPase
[4] = Antiproliferative activity against human HeLaS3 cells after 72 hrs by crystal violet assay; type: functional, cell-based; conditions: HeLa S3, 72 h
[5] = Potentiation of antiproliferative activity of FdUrd against human HeLaS3 cells assessed as reduction in FdUrd T/C value by half after 24 hrs by crystal violet assay; type: functional, cell-based; conditions: HeLa S3, 24 h

Compound	IC50 [1]	other results
O=C(CCCn1ccc(=O)[nH]c1=O)N1CCC[C@@H]1C(O)(c1ccccc1)c1ccccc1	10 µM	
O=C(CCCn1ccc(=O)[nH]c1=O)N1CCC[C@H]1C(c1ccccc1)c1ccccc1	0.15 µM	
O=C(CCCn1ccc(=O)[nH]c1=O)N1CCC[C@H]1C(O)(c1cccc(Cl)c1)c1cccc(Cl)c1	0.58 µM	
O=C(CCn1ccc(=O)[nH]c1=O)N1CCC[C@H]1C(O)(c1ccccc1)c1ccccc1	> 1 µM	
O=c1ccn([C@H]2C[C@H](O)[C@@H](COP(=O)(O)CP(=O)(O)OP(=O)(O)OCc3ccccc3)O2)c(=O)[nH]1		Ki [2]: 300 nM
O=c1ccn([C@H]2C[C@H](O)[C@@H](COP(=O)(O)NP(=O)(O)OP(=O)(O)O)O2)c(=O)[nH]1	15 µM	Ki [3]: 5 µM
COc1cccc(C(O)(c2cccc(OC)c2)[C@@H]2CCCN2C(=O)CCCn2ccc(=O)[nH]c2=O)c1	> 1 µM	
CC(C)(C)NC(=O)CCn1ccc(=O)[nH]c1=O	> 30 µM	
CC(C)(NC(=O)CCCn1ccc(=O)[nH]c1=O)C(O)(c1ccccc1)c1ccccc1	2.5 µM	EC50 [4]: > 100 µM; EC50 [5]: 3000 nM
CC(C)(C)NC(=O)CCCn1ccc(=O)[nH]c1=O	97 µM	
O=C(CCCn1ccc(=O)[nH]c1=O)NCC(c1ccccc1)c1ccccc1	16 µM	
O=C(CCCn1ccc(=O)[nH]c1=O)N1CCC[C@H]1C(O)(c1ccccc1)c1ccccc1	0.29 µM	EC50 [4]: > 100 µM; EC50 [5]: 270 nM
O=c1ccn(CCCS(=O)(=O)N2CCC[C@@H]2C(O)(c2ccc(F)cc2)c2ccc(F)cc2)c(=O)[nH]1	0.31 µM	
O=C(CCCn1ccc(=O)[nH]c1=O)N1CCC[C@H]1C(O)(c1ccc(Cl)cc1)c1ccc(Cl)cc1	> 1 µM	
CCC(CC)(CC)NC(=O)CCn1ccc(=O)[nH]c1=O	22 µM	
O=C(CCCn1ccc(=O)[nH]c1=O)Nc1ccccc1	> 30 µM	
O=c1ccn(CCCS(=O)(=O)N2CCC[C@@H]2C(O)(c2ccccc2)c2ccccc2)c(=O)[nH]1	0.32 µM	EC50 [4]: > 100 µM; EC50 [5]: 300 nM
O=C(CCn1ccc(=O)[nH]c1=O)NCC(c1ccccc1)c1ccccc1	> 30 µM	
CN(CC(O)(c1ccccc1)c1ccccc1)C(=O)CCCn1ccc(=O)[nH]c1=O	1.1 µM	
CC(C)(C)CC(C)(C)NC(=O)CCn1ccc(=O)[nH]c1=O	> 30 µM	
CC(C)(NC(=O)CCn1ccc(=O)[nH]c1=O)C(O)(c1ccccc1)c1ccccc1	7.3 µM	
COc1ccccc1C(O)(c1ccccc1OC)[C@H]1CCCN1S(=O)(=O)CCCn1ccc(=O)[nH]c1=O	> 1 µM	

Compound	IC50 [1]	other results
O=C(CCn1ccc(=O)[nH]c1=O)N(Cc1ccccc1)Cc1ccccc1	> 30 µM	
O=C(CCn1ccc(=O)[nH]c1=O)NC(c1ccccc1)c1ccccc1	> 30 µM	
CN(CC(c1ccccc1)c1ccccc1)C(=O)CCCn1ccc(=O)[nH]c1=O	1.3 µM	EC50 [4]: > 100 µM; EC50 [5]: 1200 nM
CC(C)(CCc1ccccc1)NC(=O)CCCn1ccc(=O)[nH]c1=O	21 µM	
CC(C)(C)CC(C)(C)NC(=O)CCCn1ccc(=O)[nH]c1=O	30 µM	
COc1cccc(C(O)(c2cccc(OC)c2)[C@H]2CCCN2S(=O)(=O)CCCn2ccc(=O)[nH]c2=O)c1	> 1 µM	
O=C(CCn1ccc(=O)[nH]c1=O)NCCC(c1ccccc1)c1ccccc1	> 30 µM	
O=C(CCCn1ccc(=O)[nH]c1=O)NCc1ccccc1	> 30 µM	
CC(C)(NC(=O)CCCn1ccc(=O)[nH]c1=O)c1ccccc1	> 30 µM	
COc1ccccc1C(O)(c1ccccc1OC)[C@@H]1CCCN1C(=O)CCCn1ccc(=O)[nH]c1=O	> 1 µM	
O=c1ccn(CCCS(=O)(=O)N2CCC[C@H]2C(O)(c2ccccc2)c2ccccc2)c(=O)[nH]1	9.4 µM	
COc1ccc(C(O)(c2ccc(OC)cc2)[C@@H]2CCCN2C(=O)CCCn2ccc(=O)[nH]c2=O)cc1	> 1 µM	
CCC(CC)(CC)NC(=O)CCCn1ccc(=O)[nH]c1=O	> 30 µM	
O=C(CCCn1ccc(=O)[nH]c1=O)NC(c1ccccc1)c1ccccc1	> 30 µM	
CC(C)(Cc1ccc2ccccc2c1)NC(=O)CCCn1ccc(=O)[nH]c1=O	> 30 µM	
O=C(CCCn1ccc(=O)[nH]c1=O)N1CCC[C@H]1C(O)(c1ccc(F)cc1)c1ccc(F)cc1	0.6 µM	
O=c1ccn(CCCS(=O)(=O)N2CCC[C@@H]2C(O)(c2cccc(F)c2)c2cccc(F)c2)c(=O)[nH]1	0.28 µM	
CC(C)(CO)NC(=O)CCCn1ccc(=O)[nH]c1=O	> 30 µM	
CC(C)(Cc1ccccc1)NC(=O)CCCn1ccc(=O)[nH]c1=O	> 30 µM	
O=C(CCCn1ccc(=O)[nH]c1=O)N1CCC[C@H]1C(O)(c1cccc(-c2ccsc2)c1)c1cccc(-c2ccsc2)c1	0.23 µM	
O=C(CCCn1ccc(=O)[nH]c1=O)N1CCC[C@H]1C(O)(c1cccc(F)c1)c1cccc(F)c1	0.35 µM	
O=C(CCn1ccc(=O)[nH]c1=O)N1CCC(Cc2ccccc2)CC1	> 30 µM	
